Experimental data published in ChEMBL document CHEMBL4689842, “EUbOPEN Chemogenomics Library wave 1” (2021).

Assays:
Type in all cases: toxicity, cell-based
HEK-293T = assay: Incucyte cell viability with HEK293T; settings: human, 10 µM, compound concentration 10 uM
Fibroblast = assay: Incucyte cell viability with human fibroblast; settings: 10 µM, compound concentration 10 uM
U2OS = assay: Incucyte cell viability with U2OS; settings: human, 10 µM, compound concentration 10 uM
[1] = 0 h, replicate number 1, timepoint 0 hours
[2] = 0 h, replicate number 2, timepoint 0 hours
[3] = 6 h, replicate number 1, timepoint 6 hours
[4] = 12 h, replicate number 1, timepoint 12 hours
[5] = 18 h, replicate number 1, timepoint 18 hours
[6] = 24 h, replicate number 1, timepoint 24 hours
[7] = 12 h, replicate number 2, timepoint 12 hours
[8] = 24 h, replicate number 2, timepoint 24 hours
[9] = 6 h, replicate number 2, timepoint 6 hours
[10] = 18 h, replicate number 2, timepoint 18 hours
Further: filed as whole numbers so only -1 and 0 and 1 occur.

Compound	Growth Rate (HEK-293T; [1])	Growth Rate (HEK-293T; [2])	Growth Rate (HEK-293T; [3])	Growth Rate (HEK-293T; [4])	Growth Rate (HEK-293T; [5])	Growth Rate (HEK-293T; [6])	Growth Rate (Fibroblast; [1])	Growth Rate (Fibroblast; [3])	Growth Rate (Fibroblast; [4])	Growth Rate (Fibroblast; [5])	Growth Rate (Fibroblast; [6])	Growth Rate (U2OS; [1])	Growth Rate (U2OS; [3])	Growth Rate (U2OS; [4])	Growth Rate (U2OS; [5])	Growth Rate (U2OS; [6])	Growth Rate (U2OS; [2])	Growth Rate (U2OS; [8])	Growth Rate (HEK-293T; [8])	Growth Rate (U2OS; [10])	further results
CC(=O)[C@@]1(O)CC[C@H]2[C@@H]3C[C@H](C)C4=CC(=O)CC[C@]4(C)[C@H]3CC[C@@]21C	1	0	0	0	0	0	1	0	1	1	1	1	1	1	1	1					Growth Rate (Fibroblast; [2]): 0
Cc1cccc(NC(=O)N[C@@H]2N=C(c3ccccc3)c3ccccc3N(C)C2=O)c1 [L-365260]	0		0	0	0	0	0		1	0	1	0	0	1	0	0	1	1			Growth Rate (U2OS; [7]): 0
Cc1cc(C)c(N)c(C#Cc2cccc(F)c2)n1.Cl	1	0	0	0	0	0	0	0	0	0	0		0	0	0	0		1	1	1	Growth Rate (HEK-293T; [9]): 1; Growth Rate (HEK-293T; [7]): 1; Growth Rate (HEK-293T; [10]): 1
O=C(O)CC1CCC2(CC1)CCN(c1cc(OC(F)(F)F)ccc1Cl)CC2	0		1	0	0	0	0	1		1	1	1		1	1	1	0		1		Growth Rate (HEK-293T; [7]): 1; Growth Rate (HEK-293T; [10]): 1; Growth Rate (U2OS; [9]): 1
Cc1cc(C)cc(C(=O)N(C)[C@H](Cc2ccc(-c3ccccc3)cc2)C(=O)N[C@@H](Cc2c[nH]c3ccccc23)C(=O)O)c1	1	0	0	0	0	0	0						0	0	0	0	0	1		1	Growth Rate (Fibroblast; [9]): 0; Growth Rate (Fibroblast; [7]): 1; Growth Rate (Fibroblast; [10]): 1; Growth Rate (Fibroblast; [8]): 1; Growth Rate (U2OS; [7]): 1
CCOC(=O)c1cc(C#N)c(N2CCC(C(=O)NS(=O)(=O)Cc3ccccc3)CC2)nc1C	1	0	0	0	0	0	0	0	0	0	1		1	0	0	0	1	1	1	1	Growth Rate (HEK-293T; [9]): 1; Growth Rate (Fibroblast; [8]): 0; Growth Rate (U2OS; [9]): 0; Growth Rate (U2OS; [7]): 1
N#CC1(c2ccccn2)CCN(Cc2cc(C(=O)N3CCCC3)c(=O)n3ccccc23)CC1 [MSD-M1PAM-NC]	1	0	1	0	0	0	0		1	1	0			0	0	0	0	1			Growth Rate (HEK-293T; [9]): 0; Growth Rate (Fibroblast; [9]): 1; Growth Rate (Fibroblast; [10]): 0
O=C(NC[C@H](O)CN1CCc2ccccc2C1)c1ccnc(NC2CCC2)c1	1	0						0	0	0	1	1	0	0	0	0	0	1	1	1	Growth Rate (Fibroblast; [2]): 0; Growth Rate (Fibroblast; [7]): 1; Growth Rate (Fibroblast; [10]): 1; Growth Rate (U2OS; [9]): 1; Growth Rate (U2OS; [7]): 1
COc1ccc(COc2ccc(Cc3cnc(N)nc3N)cc2OC)cc1 [GW632580X]			0	0	0	0	1	1	1	1	1	0	0	1	1	1		0		0	Growth Rate (Fibroblast; [9]): 0; Growth Rate (Fibroblast; [7]): 0; Growth Rate (Fibroblast; [10]): 0; Growth Rate (Fibroblast; [8]): 0; Growth Rate (U2OS; [7]): 0
Cn1cc(-c2ccc3occ(-c4ccccc4-c4ccccc4)c3n2)cn1	0				1	1		1	0	0	0	0	1	1	0	1			0	1	Growth Rate (HEK-293T; [9]): 1; Growth Rate (HEK-293T; [7]): 0; Growth Rate (Fibroblast; [2]): 0; Growth Rate (Fibroblast; [7]): 1; Growth Rate (Fibroblast; [10]): 1
CC(=O)N1CCC(c2ccc(C(=O)NC3=NCCN3)cc2C(F)(F)F)CC1 [BI 0054]	1	0	1	0	1	1	0	1	1	1	1	0		1	1	1			0		Growth Rate (HEK-293T; [9]): 0; Growth Rate (HEK-293T; [10]): 0; Growth Rate (Fibroblast; [9]): 0
